Laboratory results from PubChem BioAssay (NCI).
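Five concentrations, 48 hours, 96-well plates. GI50 = concentration required for 50% inhibition of growth. At the TGI there is no net growth.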

How the values were obtained:
Assay in all cases: growth of human tumour cells (NCI), 48 h
UACC-62 melanoma = system: UACC-62 melanoma
786-0 renal = system: 786-0 renal
HCC-2998 colon = system: HCC-2998 colon
SK-OV-3 ovarian = system: SK-OV-3 ovarian
OVCAR-8 ovarian = system: OVCAR-8 ovarian
EKVX NSCLC = system: EKVX NSCLC
SNB-75 CNS = system: SNB-75 CNS
RXF 393 renal = system: RXF 393 renal
M14 melanoma = system: M14 melanoma
CCRF-CEM leukemia = system: CCRF-CEM leukemia
A549 NSCLC = system: A549 NSCLC
HT29 colon = system: HT29 colon
UO-31 renal = system: UO-31 renal
PC-3 prostate = system: PC-3 prostate
MDA-MB-435 = system: MDA-MB-435
MDA-MB-231 breast = system: MDA-MB-231 breast
MOLT-4 leukemia = system: MOLT-4 leukemia
HOP-62 NSCLC = system: HOP-62 NSCLC
K-562 leukemia = system: K-562 leukemia
MALME-3M melanoma = system: MALME-3M melanoma
NCI/ADR-RES ovarian = system: NCI/ADR-RES ovarian
A498 renal = system: A498 renal
HOP-92 NSCLC = system: HOP-92 NSCLC
SNB-19 CNS = system: SNB-19 CNS
U251 CNS = system: U251 CNS
LOX IMVI melanoma = system: LOX IMVI melanoma
OVCAR-4 ovarian = system: OVCAR-4 ovarian
BT-549 breast = system: BT-549 breast
IGROV1 ovarian = system: IGROV1 ovarian
KM12 colon = system: KM12 colon
DU-145 prostate = system: DU-145 prostate
HCT-116 colon = system: HCT-116 colon
HL-60(TB) leukemia = system: HL-60(TB) leukemia
SK-MEL-2 melanoma = system: SK-MEL-2 melanoma
SK-MEL-5 melanoma = system: SK-MEL-5 melanoma
CAKI-1 renal = system: CAKI-1 renal
T-47D breast = system: T-47D breast
ACHN renal = system: ACHN renal
MCF7 breast = system: MCF7 breast
UACC-257 melanoma = system: UACC-257 melanoma
SF-539 CNS = system: SF-539 CNS
SK-MEL-28 melanoma = system: SK-MEL-28 melanoma
HS 578T breast = system: HS 578T breast
COLO 205 colon = system: COLO 205 colon
SW-620 colon = system: SW-620 colon
RPMI-8226 leukemia = system: RPMI-8226 leukemia
SF-268 CNS = system: SF-268 CNS
OVCAR-3 ovarian = system: OVCAR-3 ovarian

`C#Cc1cccc(Nc2nc3cc([N+](=O)[O-])ccc3nc2Nc2ccc(O)cc2)c1` showed a GI50 (UACC-62 melanoma) of 1620 nM, a TGI (UACC-62 melanoma) of 2990 nM and a GI50 (786-0 renal) of 1590 nM. It also gave a TGI (786-0 renal) of 3430 nM, a GI50 (HCC-2998 colon) of 1750 nM and a TGI (HCC-2998 colon) of 3450 nM. For the same compound, the GI50 (SK-OV-3 ovarian) was 2340 nM, the TGI (SK-OV-3 ovarian) was 5970 nM and the GI50 (OVCAR-8 ovarian) was 2330 nM. The TGI (OVCAR-8 ovarian) was 6480 nM, the GI50 (EKVX NSCLC) was 1860 nM and the TGI (EKVX NSCLC) was 5260 nM. The GI50 (SNB-75 CNS) was 1360 nM, the TGI (SNB-75 CNS) was 3420 nM and the GI50 (RXF 393 renal) was 1730 nM. For the same compound, the TGI (RXF 393 renal) was 3580 nM, the GI50 (M14 melanoma) was 1430 nM and the TGI (M14 melanoma) was 2990 nM. It also gave a GI50 (CCRF-CEM leukemia) of 1330 nM, a TGI (CCRF-CEM leukemia) of 6010 nM and a GI50 (A549 NSCLC) of 2170 nM. It also gave a TGI (A549 NSCLC) of 4780 nM, a GI50 (HT29 colon) of 1710 nM and a TGI (HT29 colon) of 3420 nM. The GI50 (UO-31 renal) was 1530 nM, the TGI (UO-31 renal) was 3120 nM and the GI50 (PC-3 prostate) was 1650 nM. It also gave a TGI (PC-3 prostate) of 3910 nM, a GI50 (MDA-MB-435) of 1670 nM and a TGI (MDA-MB-435) of 3390 nM. For the same compound, the GI50 (MDA-MB-231 breast) was 1800 nM, the TGI (MDA-MB-231 breast) was 3800 nM and the GI50 (MOLT-4 leukemia) was 1200 nM. It also gave a TGI (MOLT-4 leukemia) of 4170 nM, a GI50 (HOP-62 NSCLC) of 1670 nM and a TGI (HOP-62 NSCLC) of 3350 nM. For the same compound, the GI50 (K-562 leukemia) was 2100 nM, the TGI (K-562 leukemia) was 6410 nM and the GI50 (MALME-3M melanoma) was 1930 nM. It also gave a TGI (MALME-3M melanoma) of 4320 nM, a GI50 (NCI/ADR-RES ovarian) of 1840 nM and a TGI (NCI/ADR-RES ovarian) of 4370 nM. For the same compound, the GI50 (A498 renal) was 3080 nM, the TGI (A498 renal) was 13700 nM and the GI50 (HOP-92 NSCLC) was 1790 nM. The TGI (HOP-92 NSCLC) was 3600 nM, the GI50 (SNB-19 CNS) was 1780 nM and the TGI (SNB-19 CNS) was 3190 nM. For the same compound, the GI50 (U251 CNS) was 1800 nM, the TGI (U251 CNS) was 3710 nM and the GI50 (LOX IMVI melanoma) was 1380 nM. It also gave a TGI (LOX IMVI melanoma) of 2690 nM, a GI50 (OVCAR-4 ovarian) of 1990 nM and a TGI (OVCAR-4 ovarian) of 5030 nM. It also gave a GI50 (BT-549 breast) of 1710 nM, a TGI (BT-549 breast) of 3700 nM and a GI50 (IGROV1 ovarian) of 1780 nM. For the same compound, the TGI (IGROV1 ovarian) was 4370 nM, the GI50 (KM12 colon) was 1830 nM and the TGI (KM12 colon) was 3890 nM. For the same compound, the GI50 (DU-145 prostate) was 1810 nM, the TGI (DU-145 prostate) was 3770 nM and the GI50 (HCT-116 colon) was 1460 nM. It also gave a TGI (HCT-116 colon) of 2900 nM, a GI50 (HL-60(TB) leukemia) of 2420 nM and a TGI (HL-60(TB) leukemia) of 5630 nM. It also gave a GI50 (SK-MEL-2 melanoma) of 2070 nM, a TGI (SK-MEL-2 melanoma) of 4360 nM and a GI50 (SK-MEL-5 melanoma) of 1790 nM. For the same compound, the TGI (SK-MEL-5 melanoma) was 3230 nM, the GI50 (CAKI-1 renal) was 2190 nM and the TGI (CAKI-1 renal) was 5040 nM. The GI50 (T-47D breast) was 1930 nM, the TGI (T-47D breast) was 6240 nM and the GI50 (ACHN renal) was 1610 nM. For the same compound, the TGI (ACHN renal) was 4010 nM, the GI50 (MCF7 breast) was 2200 nM and the TGI (MCF7 breast) was 6110 nM. For the same compound, the GI50 (UACC-257 melanoma) was 2090 nM, the TGI (UACC-257 melanoma) was 4340 nM and the GI50 (SF-539 CNS) was 1750 nM. The TGI (SF-539 CNS) was 3290 nM, the GI50 (SK-MEL-28 melanoma) was 1780 nM and the TGI (SK-MEL-28 melanoma) was 3340 nM. It also gave a GI50 (HS 578T breast) of 1890 nM, a TGI (HS 578T breast) of 4710 nM and a GI50 (COLO 205 colon) of 1900 nM. It also gave a TGI (COLO 205 colon) of 3710 nM, a GI50 (SW-620 colon) of 1790 nM and a TGI (SW-620 colon) of 3870 nM. For the same compound, the GI50 (RPMI-8226 leukemia) was 2240 nM, the TGI (RPMI-8226 leukemia) was 8000 nM and the GI50 (SF-268 CNS) was 1560 nM. It also gave a TGI (SF-268 CNS) of 3450 nM, a GI50 (OVCAR-3 ovarian) of 1870 nM and a TGI (OVCAR-3 ovarian) of 4140 nM.
